Laboratory results reported in ChEMBL document CHEMBL3272000, “Local anesthetics. 2-Diethylamino-2',6'-acylxylidides” (J Med Chem, 1976).

Columns and labels:
[1] = test system: Rattus norvegicus; experiment: Local anesthetic activity in rat assessed as time duration of motor activity block at 2 % injected around sciatic nerve; format: functional
[2] = test system: Rattus norvegicus; experiment: Local anesthetic activity in rat assessed as frequency of motor activity block at 0.50 % injected around sciatic nerve; format: functional
[3] = test system: Rattus norvegicus; experiment: Local anesthetic activity in rat assessed as frequency of motor activity block at 1 % injected around sciatic nerve; format: functional
[4] = test system: Rattus norvegicus; experiment: Local anesthetic activity in rat assessed as time duration of motor activity block at 1 % injected around sciatic nerve; format: functional
[5] = Toxicity in ip dosed rat; format: organism-based; details: in vivo
[6] = test system: Rattus norvegicus; experiment: Local anesthetic activity in rat assessed as time duration of motor activity block at 0.125 % injected around sciatic nerve; format: functional
[7] = Ionization constant, pKa of the compound; format: physicochemical
[8] = test system: Rattus norvegicus; experiment: Local anesthetic activity in rat assessed as time duration of motor activity block at 0.25 % injected around sciatic nerve; format: functional
[9] = test system: Rattus norvegicus; experiment: Local anesthetic activity in rat assessed as time duration of motor activity block at 0.50 % injected around sciatic nerve; format: functional
[10] = test system: Rattus norvegicus; experiment: Local anesthetic activity in rat assessed as frequency of motor activity block at 2 % injected around sciatic nerve; format: functional
[11] = test system: Rattus norvegicus; experiment: Local anesthetic activity in rat assessed as frequency of motor activity block at 0.125 % injected around sciatic nerve; format: functional
[12] = test system: Rattus norvegicus; experiment: Local anesthetic activity in rat assessed as frequency of motor activity block at 0.25 % injected around sciatic nerve; format: functional

CCN(CC)C(C)C(=O)Nc1c(C)cccc1C (stereo unspecified)
Time [1]: 160 min | Activity [2]: 100% | Activity [3]: 100% | Time [4]: 114 min | LD50 [5]: 89 mg/kg | Time [6]: 82 min | pKa [7]: 8.12 | Time [8]: 92 min | Time [9]: 104 min | Activity [10]: 100% | Activity [11]: 100% | Activity [12]: 100%

CCC(C(=O)Nc1c(C)cccc1C)N(CC)CC.Cl (stereo unspecified)
Time [1]: 318 min | Activity [2]: 100% | Activity [3]: 100% | Time [4]: 308 min | LD50 [5]: 54 mg/kg | Time [6]: 156 min | pKa [7]: 7.91 | Time [8]: 235 min | Time [9]: 297 min | Activity [10]: 100% | Activity [11]: 100% | Activity [12]: 100%

CCCC(C(=O)Nc1c(C)cccc1C)N(CC)CC.Cl (stereo unspecified)
Time [1]: 268 min | Activity [2]: 100% | Activity [3]: 100% | Time [4]: 179 min | LD50 [5]: 51 mg/kg | Time [6]: 117 min | pKa [7]: 7.89 | Time [8]: 123 min | Time [9]: 140 min | Activity [10]: 100% | Activity [11]: 100% | Activity [12]: 100%

CCN(CC)CC(=O)Nc1c(C)cccc1C [LIDOCAINE]
Time [1]: 185 min | Activity [2]: 100% | Activity [3]: 100% | Time [4]: 162 min | Time [8]: 102 min | Time [9]: 123 min | Activity [10]: 100% | Activity [12]: 100%

CCCCC(C(=O)Nc1c(C)cccc1C)N(CC)CC.Cl (stereo unspecified)
Time [1]: 246 min | Activity [2]: 100% | Activity [3]: 100% | Time [4]: 196 min | LD50 [5]: 44 mg/kg | Time [6]: 92 min | pKa [7]: 7.81 | Time [8]: 111 min | Time [9]: 119 min | Activity [10]: 80% | Activity [11]: 80% | Activity [12]: 60%
